According to ChEMBL document CHEMBL3217607, “Discovery and structural modification of novel inhibitors of PTP1B inspired by the ACT fragment of scleritodermin A” (Medchemcomm, 2011):
pIC50: −log10 of the molar value.

What was measured:
[1] = target: T1, Tyrosine-protein phosphatase non-receptor type 1 (Homo sapiens, UniProt P18031); experiment: Inhibition of GST-tagged PTP1B (unknown origin) using pNPP as substrate measured for 2 mins by spectrophotometry
T1 sequence (P18031 whole entry): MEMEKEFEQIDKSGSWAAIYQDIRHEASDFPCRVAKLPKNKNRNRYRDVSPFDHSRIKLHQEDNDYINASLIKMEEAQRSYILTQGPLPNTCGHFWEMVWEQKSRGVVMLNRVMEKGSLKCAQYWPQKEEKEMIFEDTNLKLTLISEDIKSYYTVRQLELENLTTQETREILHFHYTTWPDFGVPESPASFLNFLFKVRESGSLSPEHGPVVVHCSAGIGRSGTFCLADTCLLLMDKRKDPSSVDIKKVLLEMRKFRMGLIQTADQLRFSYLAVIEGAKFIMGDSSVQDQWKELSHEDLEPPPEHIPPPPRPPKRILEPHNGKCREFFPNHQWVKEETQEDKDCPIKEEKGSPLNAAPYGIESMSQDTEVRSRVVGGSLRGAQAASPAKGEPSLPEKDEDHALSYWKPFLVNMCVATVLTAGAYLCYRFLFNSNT

[2] = target: Receptor-type tyrosine-protein phosphatase F (Homo sapiens, UniProt P10586); experiment: Inhibition of LAR (unknown origin) using 3-O-Methylfluorescein phosphate as substrate preincubated for 3 mins followed by substrate addition
[3] = target: Tyrosine-protein phosphatase non-receptor type 6 (Homo sapiens, UniProt P29350); experiment: Inhibition of SHP1 (unknown origin) using 3-O-Methylfluorescein phosphate as substrate preincubated for 3 mins followed by substrate addition
[4] = target: T2, Tyrosine-protein phosphatase non-receptor type 2 (Homo sapiens, UniProt P17706); experiment: Inhibition of TCPTP (unknown origin)
T2 sequence (P17706 whole entry): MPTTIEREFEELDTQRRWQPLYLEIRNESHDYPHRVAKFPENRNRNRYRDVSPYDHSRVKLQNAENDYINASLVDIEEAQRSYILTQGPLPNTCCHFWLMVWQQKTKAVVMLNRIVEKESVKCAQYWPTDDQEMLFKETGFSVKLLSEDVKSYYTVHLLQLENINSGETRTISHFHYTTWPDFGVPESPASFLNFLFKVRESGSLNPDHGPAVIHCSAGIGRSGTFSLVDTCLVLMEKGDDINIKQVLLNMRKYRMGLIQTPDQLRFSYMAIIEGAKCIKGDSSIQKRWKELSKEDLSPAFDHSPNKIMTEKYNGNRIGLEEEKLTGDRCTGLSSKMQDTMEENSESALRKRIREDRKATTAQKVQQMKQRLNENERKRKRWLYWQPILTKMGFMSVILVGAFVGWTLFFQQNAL

[5] = target: T3, Tyrosine-protein phosphatase non-receptor type 11 (Homo sapiens, UniProt Q06124); experiment: Inhibition of SHP2 (unknown origin) using 3-O-Methylfluorescein phosphate as substrate preincubated for 3 mins followed by substrate addition
T3 sequence (Q06124 whole entry): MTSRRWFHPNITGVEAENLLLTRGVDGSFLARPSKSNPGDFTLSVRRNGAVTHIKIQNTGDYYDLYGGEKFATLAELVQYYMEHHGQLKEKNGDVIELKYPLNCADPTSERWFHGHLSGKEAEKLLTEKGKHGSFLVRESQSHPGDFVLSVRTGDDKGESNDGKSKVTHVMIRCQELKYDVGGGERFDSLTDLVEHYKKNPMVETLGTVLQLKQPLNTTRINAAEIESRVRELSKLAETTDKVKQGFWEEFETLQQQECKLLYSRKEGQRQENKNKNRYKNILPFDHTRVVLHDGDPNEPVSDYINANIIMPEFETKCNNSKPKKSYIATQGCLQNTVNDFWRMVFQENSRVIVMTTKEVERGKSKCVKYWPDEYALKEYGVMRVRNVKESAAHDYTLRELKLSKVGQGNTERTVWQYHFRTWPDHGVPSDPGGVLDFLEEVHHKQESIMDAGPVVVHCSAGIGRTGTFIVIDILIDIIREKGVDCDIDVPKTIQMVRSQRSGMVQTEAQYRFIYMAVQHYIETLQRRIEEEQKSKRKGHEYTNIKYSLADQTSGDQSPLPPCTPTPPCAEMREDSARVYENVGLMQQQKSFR

[6] = target: T4, M-phase inducer phosphatase 2 (Homo sapiens, UniProt P30305); experiment: Inhibition of CDC25B (unknown origin) using 3-O-Methylfluorescein phosphate as substrate preincubated for 3 mins followed by substrate addition
T4 sequence (P30305 whole entry): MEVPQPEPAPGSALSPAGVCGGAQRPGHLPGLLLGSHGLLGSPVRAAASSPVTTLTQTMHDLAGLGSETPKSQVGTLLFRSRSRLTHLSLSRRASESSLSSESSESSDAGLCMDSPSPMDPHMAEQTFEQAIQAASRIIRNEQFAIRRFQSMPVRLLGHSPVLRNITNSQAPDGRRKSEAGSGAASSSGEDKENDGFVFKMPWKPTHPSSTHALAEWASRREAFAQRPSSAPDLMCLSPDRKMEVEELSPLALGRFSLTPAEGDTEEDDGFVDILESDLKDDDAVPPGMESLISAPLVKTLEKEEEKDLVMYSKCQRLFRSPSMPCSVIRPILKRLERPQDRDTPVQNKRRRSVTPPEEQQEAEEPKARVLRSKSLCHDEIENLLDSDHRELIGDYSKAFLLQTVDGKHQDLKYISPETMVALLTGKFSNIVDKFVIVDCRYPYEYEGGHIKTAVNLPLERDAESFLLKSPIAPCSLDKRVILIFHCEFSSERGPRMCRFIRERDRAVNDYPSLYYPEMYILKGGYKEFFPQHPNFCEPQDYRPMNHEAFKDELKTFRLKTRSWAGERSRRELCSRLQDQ

Chain of Tyrosine-protein phosphatase non-receptor type 6 (P29350 whole entry): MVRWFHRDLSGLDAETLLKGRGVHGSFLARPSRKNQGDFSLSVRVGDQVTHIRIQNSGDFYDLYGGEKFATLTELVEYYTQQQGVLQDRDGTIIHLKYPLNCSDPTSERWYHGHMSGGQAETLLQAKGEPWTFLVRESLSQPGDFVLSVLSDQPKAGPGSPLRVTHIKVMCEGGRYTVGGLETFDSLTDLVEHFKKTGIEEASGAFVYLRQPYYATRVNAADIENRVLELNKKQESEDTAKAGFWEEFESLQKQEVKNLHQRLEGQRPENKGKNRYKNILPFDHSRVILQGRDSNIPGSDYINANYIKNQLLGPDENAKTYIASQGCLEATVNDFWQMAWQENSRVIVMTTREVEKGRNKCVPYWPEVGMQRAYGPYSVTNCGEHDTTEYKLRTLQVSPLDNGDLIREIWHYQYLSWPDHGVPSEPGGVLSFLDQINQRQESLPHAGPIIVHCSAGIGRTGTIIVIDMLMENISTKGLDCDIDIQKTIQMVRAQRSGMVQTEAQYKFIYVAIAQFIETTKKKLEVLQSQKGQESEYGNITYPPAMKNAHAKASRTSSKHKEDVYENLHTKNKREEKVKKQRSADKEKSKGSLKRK
Chain of Receptor-type tyrosine-protein phosphatase F (P10586 whole entry): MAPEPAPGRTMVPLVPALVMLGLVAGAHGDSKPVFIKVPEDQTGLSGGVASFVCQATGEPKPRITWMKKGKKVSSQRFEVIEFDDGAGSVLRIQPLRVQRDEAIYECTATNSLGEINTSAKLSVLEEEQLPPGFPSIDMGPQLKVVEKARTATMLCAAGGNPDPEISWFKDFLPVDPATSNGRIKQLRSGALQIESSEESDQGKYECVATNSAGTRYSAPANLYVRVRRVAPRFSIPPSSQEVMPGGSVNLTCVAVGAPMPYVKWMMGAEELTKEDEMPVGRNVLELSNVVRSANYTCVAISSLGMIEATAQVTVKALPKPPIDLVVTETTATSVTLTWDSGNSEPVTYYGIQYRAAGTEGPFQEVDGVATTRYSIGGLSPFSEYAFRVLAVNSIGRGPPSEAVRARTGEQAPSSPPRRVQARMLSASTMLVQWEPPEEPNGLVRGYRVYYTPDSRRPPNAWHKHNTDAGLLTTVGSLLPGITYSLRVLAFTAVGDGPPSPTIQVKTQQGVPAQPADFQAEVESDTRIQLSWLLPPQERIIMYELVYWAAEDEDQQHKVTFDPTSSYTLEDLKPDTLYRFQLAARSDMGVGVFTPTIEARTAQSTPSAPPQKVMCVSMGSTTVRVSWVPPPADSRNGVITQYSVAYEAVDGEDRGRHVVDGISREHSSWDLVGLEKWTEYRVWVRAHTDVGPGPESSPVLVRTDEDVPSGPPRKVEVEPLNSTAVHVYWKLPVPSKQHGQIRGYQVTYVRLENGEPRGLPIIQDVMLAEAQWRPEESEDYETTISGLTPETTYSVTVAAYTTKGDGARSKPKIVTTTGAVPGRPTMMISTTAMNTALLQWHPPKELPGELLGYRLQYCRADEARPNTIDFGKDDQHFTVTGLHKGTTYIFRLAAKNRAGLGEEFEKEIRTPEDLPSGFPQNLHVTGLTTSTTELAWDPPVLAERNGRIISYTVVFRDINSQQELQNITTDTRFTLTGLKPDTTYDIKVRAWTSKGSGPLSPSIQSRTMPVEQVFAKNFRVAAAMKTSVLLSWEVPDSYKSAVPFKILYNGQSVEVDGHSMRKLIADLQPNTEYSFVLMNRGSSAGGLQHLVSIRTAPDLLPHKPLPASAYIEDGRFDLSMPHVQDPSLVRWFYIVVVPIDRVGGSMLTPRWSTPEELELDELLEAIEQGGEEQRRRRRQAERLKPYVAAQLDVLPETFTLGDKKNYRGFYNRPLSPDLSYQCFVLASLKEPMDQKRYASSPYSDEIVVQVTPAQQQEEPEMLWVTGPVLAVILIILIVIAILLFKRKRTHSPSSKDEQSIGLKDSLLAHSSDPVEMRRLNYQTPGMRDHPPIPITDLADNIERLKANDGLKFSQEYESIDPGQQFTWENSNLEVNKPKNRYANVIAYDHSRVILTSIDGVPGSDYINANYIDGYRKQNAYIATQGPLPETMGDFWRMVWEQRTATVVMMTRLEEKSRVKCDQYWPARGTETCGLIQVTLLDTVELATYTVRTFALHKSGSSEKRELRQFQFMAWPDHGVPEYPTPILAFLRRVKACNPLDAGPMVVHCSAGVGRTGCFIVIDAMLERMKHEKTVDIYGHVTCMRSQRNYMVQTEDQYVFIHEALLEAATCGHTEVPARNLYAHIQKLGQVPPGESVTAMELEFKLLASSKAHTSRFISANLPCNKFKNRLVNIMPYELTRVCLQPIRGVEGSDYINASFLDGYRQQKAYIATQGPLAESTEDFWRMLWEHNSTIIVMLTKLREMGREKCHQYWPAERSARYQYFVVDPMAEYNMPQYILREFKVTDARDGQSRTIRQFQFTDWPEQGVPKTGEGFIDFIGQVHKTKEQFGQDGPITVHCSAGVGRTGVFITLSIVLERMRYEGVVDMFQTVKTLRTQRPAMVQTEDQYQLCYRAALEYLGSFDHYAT

Structure (SMILES)	pIC50 [1]	pIC50 [2]	pIC50 [3]	pIC50 [4]	pIC50 [5]	pIC50 [6]
CCOC(=O)/C(C)=C\C(C)=C\c1csc([C@H](Cc2ccc(OCc3ccccc3)cc2)NC(=O)c2ccccc2)n1	< 4.44	–	–	–	–	–
CCOC(=O)COC(=O)/C(C)=C\C(C)=C\c1csc(C(Cc2ccc(OCc3ccccc3)cc2)NC(=O)OC(C)(C)C)n1 (single isomer, unassigned)	5.15	–	–	–	–	–
CCOC(=O)COC(=O)/C(C)=C\C(C)=C\c1csc([C@H](Cc2ccc(OCc3ccccc3)cc2)NC(=O)CCCc2c[nH]c3ccccc23)n1	5.52	< 4.70	< 4.70	4.90	< 4.70	5.59
CCOC(=O)COC(=O)/C(C)=C\C(C)=C\c1csc([C@H](Cc2ccc(OCc3ccccc3)cc2)NC(=O)[C@H](Cc2c[nH]c3ccccc23)NC(=O)OC(C)(C)C)n1	5.25	–	–	–	–	–
C/C(=C/C(C)=C/c1csc([C@H](Cc2ccc(OCc3ccccc3)cc2)NC(=O)CCc2c[nH]c3ccccc23)n1)C(=O)OCC(=O)O	5.63	< 4.70	4.82	5.06	4.72	5.32
CCOC(=O)COC(=O)/C(C)=C\C(C)=C\c1csc([C@H](Cc2ccc(OCc3ccccc3)cc2)NC(=O)Cc2c[nH]c3ccccc23)n1	5.23	< 4.70	< 4.70	4.85	< 4.70	5.55
COC(=O)CCNC(=O)/C(C)=C\C(C)=C\c1csc(C(Cc2ccc(OCc3ccccc3)cc2)NC(=O)OC(C)(C)C)n1 (single isomer, unassigned)	4.80	–	–	–	–	–
CCOC(=O)COC(=O)/C(C)=C\C(C)=C\c1csc([C@H](Cc2ccc(OCc3ccccc3)cc2)NC(=O)[C@H](Cc2c[nH]c3ccccc23)NC(C)=O)n1	5.68	< 4.70	< 4.70	5.05	< 4.70	5.62
CCOC(=O)/C(C)=C/C(C)=C\c1csc([C@H](Cc2ccc(OCc3ccccc3)cc2)NC(=O)C2CCCCC2)n1	4.62	–	–	–	–	–
CCOC(=O)C(C)CC(C)Cc1csc([C@H](Cc2ccc(OCc3ccccc3)cc2)NC(=O)C2CCCCC2)n1 (stereo partly drawn)	< 4.40	–	–	–	–	–
CCOC(=O)/C(C)=C\C(C)=C\c1csc([C@H](Cc2ccc(OCc3ccccc3)cc2)NC(=O)c2ccco2)n1	4.74	–	–	–	–	–
CCOC(=O)/C(C)=C/c1csc([C@H](Cc2ccc(OCc3ccccc3)cc2)NC(=O)C2CCCCC2)n1	< 4.40	–	–	–	–	–
CCCCC(=O)N[C@@H](Cc1ccc(OCc2ccccc2)cc1)c1nc(/C=C(C)/C=C(/C)C(=O)OCC)cs1	4.94	–	–	–	–	–
CCOC(=O)/C(C)=C\C(C)=C\c1csc([C@H](Cc2ccc(OCc3ccccc3)cc2)NC(=O)C2CC2)n1	4.70	–	–	–	–	–
C/C(=C/C(C)=C/c1csc([C@H](Cc2ccc(OCc3ccccc3)cc2)NC(=O)CCCc2c[nH]c3ccccc23)n1)C(=O)OCC(=O)O	5.61	< 4.70	< 4.70	4.96	< 4.70	5.36
CCOC(=O)/C(C)=C/C(C)=C/c1csc([C@H](Cc2ccc(OCc3ccccc3)cc2)NC(=O)C2CCCCC2)n1	4.72	–	–	–	–	–

Structure (SMILES)	pIC50 [1]	pIC50 [2]	pIC50 [3]	pIC50 [4]	pIC50 [5]	pIC50 [6]
CCOC(=O)/C(C)=C\C(C)=C\c1csc([C@H](Cc2ccc(OCc3ccccc3)cc2)NC(=O)c2ccc(F)cc2)n1	5.05	–	–	–	–	–
CCOC(=O)/C(C)=C\C(C)=C\c1csc([C@H](Cc2ccc(OCc3ccccc3)cc2)NC(=O)C2CCCC2)n1	4.75	–	–	–	–	–
C=CCOC(=O)N[C@@H](COC(=O)/C(C)=C\C(C)=C\c1csc([C@H](Cc2ccc(OCc3ccccc3)cc2)NC(=O)OC(C)(C)C)n1)C(=O)N1CCC[C@H]1C(=O)OC(C)(C)C	5.35	–	–	5.40	–	–
CCOC(=O)CNC(=O)/C(C)=C\C(C)=C\c1csc(C(Cc2ccc(OCc3ccccc3)cc2)NC(=O)OC(C)(C)C)n1 (single isomer, unassigned)	4.91	–	–	–	–	–
C/C(=C/C(C)=C/c1csc([C@H](Cc2ccc(OCc3ccccc3)cc2)NC(=O)Cc2c[nH]c3ccccc23)n1)C(=O)OCC(=O)O	5.43	< 4.70	< 4.70	5.00	< 4.70	5.31
CCOC(=O)CCCCOC(=O)/C(C)=C\C(C)=C\c1csc(C(Cc2ccc(OCc3ccccc3)cc2)NC(=O)OC(C)(C)C)n1 (single isomer, unassigned)	5.02	–	–	–	–	–
CCOC(=O)/C(C)=C\C(C)=C\c1csc([C@H](Cc2ccc(OCc3ccccc3)cc2)NC(=O)C2CCCCC2)n1	5.03	< 4.70	< 4.70	4.81	< 4.70	5.41
CCOC(=O)/C(C)=C\C(C)=C\c1csc([C@H](Cc2ccc(OCc3ccccc3)cc2)NC(=O)c2cc3ccccc3s2)n1	5.03	–	–	–	–	–
C/C(=C/C(C)=C/c1csc([C@H](Cc2ccc(OCc3ccccc3)cc2)NC(=O)[C@H](Cc2c[nH]c3ccccc23)NC(=O)OC(C)(C)C)n1)C(=O)OCC(=O)O	5.80	< 4.70	< 4.70	5.34	< 4.70	5.47
CCOC(=O)CCCOC(=O)/C(C)=C\C(C)=C\c1csc(C(Cc2ccc(OCc3ccccc3)cc2)NC(=O)OC(C)(C)C)n1 (single isomer, unassigned)	4.90	–	–	–	–	–
CCOC(=O)/C(C)=C\C(C)=C\c1csc([C@H](Cc2ccc(OCc3ccccc3)cc2)NC(=O)C(C)C)n1	4.79	–	–	–	–	–
CC(=O)N[C@@H](Cc1c[nH]c2ccccc12)C(=O)N[C@@H](Cc1ccc(OCc2ccccc2)cc1)c1nc(/C=C(C)/C=C(/C)C(=O)OCC(=O)O)cs1	5.52	< 4.70	< 4.70	4.75	< 4.70	5.27
CCOC(=O)COC(=O)/C(C)=C\C(C)=C\c1csc([C@H](Cc2ccc(OCc3ccccc3)cc2)NC(=O)CCc2c[nH]c3ccccc23)n1	5.27	< 4.70	< 4.70	4.89	< 4.70	5.44
CCOC(=O)c1csc([C@H](Cc2ccc(OCc3ccccc3)cc2)NC(=O)C2CCCCC2)n1	< 4.40	–	–	–	–	–
CCOC(=O)/C(C)=C\C(C)=C/c1csc([C@H](Cc2ccc(OCc3ccccc3)cc2)NC(=O)C2CCCCC2)n1	4.89	–	–	–	–	–
CCOC(=O)/C(C)=C\c1csc([C@H](Cc2ccc(OCc3ccccc3)cc2)NC(=O)C2CCCCC2)n1	< 4.40	–	–	–	–	–
